Consider two molecules from patent publication US8481028B2, “Compositions for preparing a coffee beverage comprising hydrolysed chlorogenic acid” (Nestec S.A., priority 2008, dated 2013).

The test system of data set [1] is Lactobacillus johnsonii (CNCM I-1225). The data set can be described thus: Gastric small-intestinal model (TIM), hydrolysis of 5-CQA during simulated digestion. To be noted: 6 h digestion, with addition of L. johnsonii.
Description: The gastric small-intestinal model, TIM-1, comprises four connected compartments that represent the stomach, duodenum, jejunum and ileum, respectively. Each compartment consists of a glass outer wall with a flexible inner wall. The flexible wall is surrounded by water at 37° C. to squeeze the walls, which ensures mixing of the food with the secreted enzymes by peristaltic movements in the gastro-intestinal tract.
The experiments in the model were performed under average physiological conditions of the gastro-intestinal tract. During the experiments, the temperature was kept at 37° C. and salivary, gastric, biliary, and pancreatic secretions were simulated. The digestion process in the model was monitored for 6 h. During the first 3.5 h, the gastric content was gradually delivered into the small intestine “pyloric valve”. […]
4.5 g of NESCAFE PROTECT® (a co-extract of green and roasted coffee beans) were dissolved in 310 ml acetate buffer (20 mM, pH 6.5). […] After 6 h experiment, the residues from the compartments of the stomach, duodenum, jejunum and ileum were analysed to calculate the mass balance of chlorogenic acids. […] After 6 h, the residues from the compartments of the stomach, duodenum, jejunum and ileum were analysed by HPLC to calculate the mass balance of 5-caffeoyl quinic acid.
Data set [2] relates to Bifidobacterium lactis BB12 (CNCM I-3446). Briefly: Treatment of coffee extracts with bacteria cells (B. lactis), HPLC. As for the experimental part:
(§1) Coffee samples were diluted to 1% w/w and analyzed by RP-HPLC on a CC 250/4 Nucleosil 100-5-C18 column (Macherey-Nagel). The eluent system was Millipore water, 0.1% TFA and CH3CN at a flow rate of 1 mL/min. The method allowed the simultaneous determination of caffeoyl quinic acids (CQA), feruloyl quinic acids (FQA), di-caffeoyl quinic acids (diCQA), feruloyl quinic acid-lactones, caffeic acid (CA) and ferulic acid (FA) (absorbance at 325 nm) using external standard calibration curves. Results were expressed relative to the reference at time 0 (t0) or to the reference at the same time without bacteria.
(§2) Tested strains were harvested (centrifugation at 5000 g for 10 min) after having well reached stationary phase, corresponding to 16 hours of incubation in culture medium at 37° C. in anaerobic atmosphere without agitation. For a first activation of the strains, frozen stock cultures were inoculated in fresh media and grown overnight. This pre-culture was used to inoculate the culture.
(§3) After culture of bacteria and centrifugation, the pellets were resuspended in phosphate buffer (pH 7.0) at a concentration of 0.61 g/ml. To 200 μl of this cells preparation, 800 μl of a coffee solution (3%) was added and the mixture was incubated at 37° C. for 4 h, 16 h and 24 h.

Data set [3] has as its system Lactobacillus johnsonii (CNCM I-1225) fresh cells. Briefly: Treatment of NESCAFE PROTECT with L. johnsonii fresh cells, HPLC of chlorogenic and phenolic acids. The protocol:
(§4) Cells of L. johnsonii (CNCM I-1225) were grown (7.0 E08 cfu/ml) and centrifuged (5000 g, 10 min), the pellets were resuspended in phosphate buffer (50 mM, pH 7.0) at a concentration of 0.61 g/ml. […] Samples were withdrawn at different reaction times, centrifuged (3000 g, 5 min) and filtered through 0.45 μm pore size syringe filters (Millipore SLHA 025 BS) and analysed by HPLC.
A reaction control was run in parallel under the same reaction conditions but without bacteria.
as §1

Data set [4] has as its system spray-dried preparation of Lactobacillus johnsonii (CNCM I-1225). Briefly: Treatment of NESCAFE PROTECT with spray-dried preparation of L. johnsonii, HPLC. The protocol: To this solution, 10 mg of a spray-dried preparation of Lactobacillus johnsonii (CNCM I-1225) (3.3 E9 cfu/g) were added. The mixture was then incubated at 37° C. and samples were withdrawn at different reaction times. After centrifugation (3000 g, 5 min) and filtration (0.45 μm pore size syringe filters, Millipore SLHA 025 BS) the samples were analysed by HPLC.
as §1

For data set [5] the test system is unchanged. Briefly: Treatment of green coffee extract with spray-dried preparation of L. johnsonii, HPLC. As for the experimental part: 30 mg of a dried green coffee extract was dissolved in 1 ml phosphate buffer (50 mM, pH 7.0) or in 1 ml water. To this solution, 10 mg of a spray-dried preparation of Lactobacillus johnsonii (3.3 E9 cfu/g) was added. The mixture was then incubated at 37° C. and samples were withdrawn at different reaction times. After centrifugation (3000 g, 5 min) and filtration (0.45 μm pore size syringe filters, Millipore SLHA 025 BS) the samples were analysed by HPLC.
as §1

Data set [6] relates to Lactobacillus johnsonii (CNCM I-1225). The data set can be described thus: Treatment of coffee extracts with bacteria cells (L. johnsonii), HPLC. As for the experimental part:
as §1, §2, §3

The subject of data set [7] is Lactobacillus johnsonii (CNCM I-1225) extract (lysed cells). Briefly: Treatment of NESCAFE PROTECT with L. johnsonii extract (lysed cells), HPLC. The format is biochemical. As for the experimental part: as §4, with “g/ml. The cells were then lysed using the glass-beads method. 600 μl of cells preparation were put in screw-cap tubes and 600 μl of glass-beads were added at 0° C. The tubes were then put into a Mini-Beadbeater for 1 min of intense shaking, cooled in ice, and put another 1 min in the Mini-Beadbeater.” for “g/ml.”, “min),” for “min) and”
as §1

Data set [8] deals with concentrated preparation of Lactobacillus johnsonii (CNCM I-1225). Briefly: Treatment of NESCAFE with concentrated preparation of L. johnsonii, HPLC. As for the experimental part:
400 mg of NESCAFE SPECIAL FILTRE® (a dried extract of roasted coffee beans) were dissolved in 1 ml of boiling water and the solution was cooled to 37° C. at room temperature. To 250 μl of this coffee solution, different amounts of concentrated preparation of Lactobacillus johnsonii (50 μl, 100 μl, 350 μl, 750 μl) were added and the volume was adjusted to 1 ml with water. The mixtures were than incubated at 37° C. for 2 h and 4 h. After centrifugation (3000 g, 5 min) and filtration the samples were analysed by HPLC.
as §1

A further data set relates to Chlorogenate esterase. Briefly: Incubation of coffee extracts with chlorogenate esterase, HPLC. In kind it is biochemical, Aspergillus japonicus. As for the experimental part:
as §1
Chlorogenate esterase (24 U/g), derived from Aspergillus japonicus (Kikkoman, Japan). Tannase from Aspergillus oryzae (Kikkoman, Japan) Preparation of Bacteria Cells
A solution of chlorogenate esterase (25 mg) in 200 μl phosphate buffer (pH 7.0) was added to 800 μl of a coffee solution (3%). The mixture was then incubated at 37° C. for 4 h, 16 h and 24 h. After reaction time, the enzymatic activity was stopped by heat treatment (3 min, 90° C.) and the mixture was filtered before analysis.

With `O=C(/C=C/c1ccc(O)c(O)c1)O[C@@H]1C[C@@](O)(C(=O)O)C[C@@H](O)[C@@H]1O` [5-CQA, 5-caffeoyl quinic acid], the “% hydrolysis of 5-CQA (% hydrolysed of total 5-CQA present in the samples)” value in data set [1] is given as 48%.
Consider feruloyl quinic acids [FQA], for which the “% relative to untreated control at t = 0” value amounted to 54% in data set [2] (NESCAFE PROTECT + Bifidobacterium lactis, 4 h); 23% in data set [2] (NESCAFE PROTECT + Bifidobacterium lactis, 16 h); 20% in [2] (NESCAFE PROTECT + Bifidobacterium lactis, 24 h); 33% in data set [2] (green coffee extract + Bifidobacterium lactis, 4 h); 12% in data set [2] (green coffee extract + Bifidobacterium lactis, 16 h); 6% in data set [2] (green coffee extract + Bifidobacterium lactis, 24 h). Besides, the “% relative to untreated control at t = 0” value amounted to 82% in data set [4] (2 h); 60% in data set [4] (6 h); 34% in data set [4] (24 h); 79% in [5] (4 h); 71% in [5] (6 h); 48% in [5] (16 h). Besides, the “% relative to untreated control at t = 0” value in data set [5] (24 h) is listed as 52%; in [6] (NESCAFE PROTECT + Lactobacillus johnsonii, 4 h) it was 42%; in data set [6] (NESCAFE PROTECT + Lactobacillus johnsonii, 16 h), 21%; in data set [6] (NESCAFE PROTECT + Lactobacillus johnsonii, 24 h), 20%; in data set [6] (green coffee extract + Lactobacillus johnsonii, 4 h), 49%; in [6] (green coffee extract + Lactobacillus johnsonii, 16 h), 15%. Also, the “% relative to untreated control at t = 0” value in data set [6] (green coffee extract + Lactobacillus johnsonii, 24 h) is 15%; in [8] (cell amount 50 μL/1 mL, 2 h), 90%; in data set [8] (cell amount 50 μL/1 mL, 4 h), 89%; in data set [8] (cell amount 100 μL/1 mL, 2 h), 82%; in data set [8] (cell amount 100 μL/1 mL, 4 h), 74%; in [8] (cell amount 350 μL/1 mL, 2 h), 61%. Besides, the “% relative to untreated control at t = 0” value is 53% in data set [8] (cell amount 350 μL/1 mL, 4 h); 41% in data set [8] (cell amount 750 μL/1 mL, 2 h); 37% in data set [8] (cell amount 750 μL/1 mL, 4 h); 54% in the data set with Chlorogenate esterase (NESCAFE PROTECT + Chlorogenate esterase, 4 h); 15% in the data set on Chlorogenate esterase (NESCAFE PROTECT + Chlorogenate esterase, 16 h); 14% with Chlorogenate esterase (NESCAFE PROTECT + Chlorogenate esterase, 24 h). In addition, the “% relative to untreated control at t = 0” value in the data set on Chlorogenate esterase (green coffee extract + Chlorogenate esterase, 4 h) was found to be 73%; with Chlorogenate esterase (green coffee extract + Chlorogenate esterase, 16 h), 24%; with Chlorogenate esterase (green coffee extract + Chlorogenate esterase, 24 h), 23%. Also, the “Concentration in % relative to untreated reference at t = 0” value in [3] (6 h, cell preparation 100 uL) came to 42%; in data set [3] (6 h, cell preparation 350 uL), 17%; in [3] (6 h, cell preparation 750 uL), 8%; in data set [3] (24 h, cell preparation 100 uL), 17%; in data set [3] (24 h, cell preparation 350 uL), 4%; in data set [3] (24 h, cell preparation 750 uL) it was 0%. Besides, the “Concentration in % relative to untreated reference at t = 0” value in data set [7] (2 h, cell preparation 100.0 uL) was found to be 36%; in data set [7] (2 h, cell preparation 350.0 uL), 15%; in data set [7] (6 h, cell preparation 100.0 uL) it was 18%; in [7] (6 h, cell preparation 350.0 uL), 11%.
